Read-outs that look alike come from different tables or passages of the source.
Key:
[1] = Storage stability of retinoic acid precursor (RAP) in caprylic capric triglyceride at 45° C, RAP amount by HPLC; type: physicochemical; conditions: for Initial RAP Concentration, Week 0 / RAP Concentration, Week 1 / RAP Concentration, Week 4 / RAP Concentration, Week 20: Example 1, caprylic capric triglyceride carrier, storage 45° C, ER 0.35% where present
Experimental: Compositions were prepared with caprylic capric triglyceride as the carrier to 100%. Storage was maintained at 45° C. Assessment of RAP amount in the formulae was achieved via HPLC using ASTM Standards. […]

[2] = as above; type: physicochemical; conditions: Example 3; RAP alone, no SBA (ratio —)

Week 4 % Remaining [1] | Week 20 % Remaining [1] | Initial RAP Concentration, Week 0 [1] | RAP Concentration, Week 1 [1] | RAP Concentration, Week 4 [1] | RAP Concentration, Week 20 [1] | Week 0 Concentration [2] | Week 1 Concentration [2] | Week 4 Concentration [2] | Week 4 % Remaining ([1]; 4 week, 0.1 %) | Week 20 % Remaining ([1]; 20 week, 0.1 %) | Compound | Effect on stability of the RAPs (in words) [1]
84% | 0% | 0.38% | No | 0.32% | 0% | 0.38 | 0.38 | 0.32 | – | – | CCC(=O)OC/C=C(C)/C=C/C=C(C)/C=C/C1=C(C)CCCC1(C)C [Retinyl Propionate] | –
– | – | – | – | – | – | – | – | – | – | – | CCc1ccc(O)cc1O [4-ethyl resorcinol] | improves the stability of the RAPs by preventing oxidation
– | – | 0.1% | 0.042% | 0.001% | 0% | 0.1 | 0.042 | 0.001 | 1% | 0% | CC1=C(/C=C/C(C)=C/C=C/C(C)=C/CO)C(C)(C)CCC1 [Retinol] | –
0% | 0% | 0.36% | 0.14% | 0% | 0% | – | – | – | – | – | COc1ccc(C(=O)COC(=O)\C=C(C)/C=C/C=C(C)/C=C/C2=C(C)CCCC2(C)C)cc1 [Retextra ®, hydroxyanasatil retinoate] | –
